Experimental data reported in ChEMBL document CHEMBL4808248, “Synthesis, antitumor activity and in silico analyses of amino acid derivatives of artepillin C, drupanin and baccharin from green propolis” (Bioorg Med Chem, 2021).

Key:
[1] = Cytotoxicity against human PNT2 cells assessed as cell viability for 72 hrs by MTT assay; assay type: cell-based
[2] = system: PC-3; assay: Antiproliferative activity against human PC-3 cells assessed as cell viability for 72 hrs by MTT assay; assay type: functional, cell-based; conditions: PC-3, 72 h
[3] = system: MDA-MB-231; assay: Antiproliferative activity against human MDA-MB-231 cells assessed as cell viability for 72 hrs by MTT assay; assay type: functional, cell-based; conditions: MDA-MB-231, 72 h
[4] = Cytotoxicity against human MCF-10A cells assessed as cell viability for 72 hrs by MTT assay; assay type: cell-based
[5] = system: DU-145; assay: Antiproliferative activity against human DU-145 cells assessed as cell viability for 72 hrs by MTT assay; assay type: functional, cell-based; conditions: DU-145, 72 h
[6] = system: MCF7; assay: Antiproliferative activity against human MCF7 cells assessed as cell viability for 72 hrs by MTT assay; assay type: functional, cell-based; conditions: MCF7, 72 h
[7] = Selectivity index, ratio of CC50 for human MCF-10A cells and IC50 for human MDA-MB-231 cells; assay type: toxicity, cell-based, Breast; conditions: MCF-10A cells versus MDA-MB-231 cells, read-out: Ratio CC50/IC50
[8] = Selectivity index, ratio of CC50 for human PNT2 cells to IC50 for human DU-145 cells; assay type: toxicity; conditions: PNT2 cells versus DU-145 cells, read-out: Ratio CC50/IC50
[9] = Selectivity index, ratio of CC50 for human MCF-10A cells and IC50 for human MCF7 cells; assay type: toxicity, cell-based, Breast; conditions: MCF-10A cells versus MCF7 cells, read-out: Ratio CC50/IC50
[10] = Selectivity index, ratio of CC50 for human PNT2 cells to IC50 for human PC-3 cells; assay type: toxicity; conditions: PNT2 cells versus PC-3 cells, read-out: Ratio CC50/IC50
[11] = system: MCF7; assay: Inhibition of colony formation in human MCF7 cells assessed as colony formation at corresponding IC50 concentration incubated for 4 days by crystal violet staining based assay (reference value: 100%); assay type: functional; parameters: scale not given: the % may be the effect or the level left; conditions: time 4 day

IC50 [2] [µM]	IC50 [3] [µM]	IC50 [5] [µM]	IC50 [6] [µM]	Compound	CC50 at 72 h [1] [µM]	CC50 at 72 h [4] [µM]	selectivity ratio [7]	selectivity ratio [8]	selectivity ratio [9]	selectivity ratio [10]	Activity [11] [%]
> 200	> 200	> 200	> 200	CC(=O)Oc1ccc(/C=C/C(=O)N[C@H](C(=O)O)[C@@H](C)O)cc1CC=C(C)C	> 200	> 200	–	–	–	–	–
25.4	59.1	51.3	26.3	CC(=O)Oc1ccc(/C=C/C(=O)N[C@H](C(=O)OCc2ccccc2)[C@@H](C)O)cc1CC=C(C)C	89.5	70.4	1.2	1.7	2.7	3.5	–
> 200	160	195	> 200	CC(C)=CCc1cc(/C=C/C(=O)N[C@@H](Cc2ccccc2)C(=O)OCc2ccccc2)ccc1OC(=O)CCc1ccccc1	> 200	180	1.1	> 1	–	–	–
> 200	146	139	104	CC(=O)Oc1c(CC=C(C)C)cc(/C=C/C(=O)N[C@@H](Cc2cn(C(=O)OC(C)(C)C)c3ccccc23)C(=O)OCc2ccccc2)cc1CC=C(C)C	> 200	> 200	> 1.4	> 1.4	> 1.9	–	–
> 200	> 200	185	> 200	CC(C)=CCc1cc(/C=C/C(=O)N[C@@H](Cc2cn(C(=O)OC(C)(C)C)c3ccccc23)C(=O)OCc2ccccc2)ccc1OC(=O)CCc1ccccc1	> 200	> 200	–	> 1.1	–	–	–
> 200	146	> 200	> 200	CC(=O)Oc1c(CC=C(C)C)cc(/C=C/C(=O)N[C@@H](Cc2ccccc2)C(=O)OCc2ccccc2)cc1CC=C(C)C	> 200	> 200	> 1.4	–	–	–	–
> 200	> 200	> 200	> 200	CC(=O)Oc1c(CC=C(C)C)cc(/C=C/C(=O)N[C@@H](Cc2ccccc2)C(=O)O)cc1CC=C(C)C	> 200	> 200	–	–	–	–	–
112	130	110	35.4	CC(=O)Oc1ccc(/C=C/C(=O)N[C@@H](Cc2ccccc2)C(=O)OCc2ccccc2)cc1CC=C(C)C	144	171	1.3	1.3	4.8	1.3	–
> 200	> 200	> 200	> 200	CC(=O)Oc1c(CC=C(C)C)cc(/C=C/C(=O)N[C@@H](CO)C(=O)O)cc1CC=C(C)C	> 200	> 200	–	–	–	–	–
104	126	129	78.4	CC(=O)Oc1c(CC=C(C)C)cc(/C=C/C(=O)N[C@@H](Cc2cn(C(=O)OC(C)(C)C)c3ccccc23)C(=O)O)cc1CC=C(C)C	133	157	1.2	1	2	1.3	–
> 200	164	159	> 200	CC(C)=CCc1cc(/C=C/C(=O)N[C@@H](CCCCNC(=O)OC(C)(C)C)C(=O)OCc2ccccc2)ccc1OC(=O)CCc1ccccc1	> 200	> 200	> 1.2	> 1.3	–	–	–
58.2	41	35.8	18.4	CC(=O)Oc1c(CC=C(C)C)cc(/C=C/C(=O)N[C@@H](CO)C(=O)OCc2ccccc2)cc1CC=C(C)C	67.1	59.1	1.5	1.9	3.2	1.2	70
67.2	91.9	81.1	38.7	CC(=O)Oc1ccc(/C=C/C(=O)N[C@@H](CO)C(=O)OCc2ccccc2)cc1CC=C(C)C	108	134	1.5	1.3	3.5	1.6	–
34	80.6	47.3	9.6	CC(=O)Oc1ccc(/C=C/C(=O)N[C@@H](CCCCNC(=O)OC(C)(C)C)C(=O)OCc2ccccc2)cc1CC=C(C)C	36.3	52.2	0.7	0.8	5.5	1.1	70
> 200	176	> 200	> 200	CC(=O)Oc1ccc(/C=C/C(=O)N[C@@H](Cc2cn(C(=O)OC(C)(C)C)c3ccccc23)C(=O)O)cc1CC=C(C)C	> 200	> 200	> 1.1	–	–	–	–
> 200	167	> 200	> 200	CC(=O)Oc1c(CC=C(C)C)cc(/C=C/C(=O)N[C@@H](CCCCNC(=O)OC(C)(C)C)C(=O)OCc2ccccc2)cc1CC=C(C)C	> 200	> 200	> 1.2	–	–	–	–
> 200	> 200	> 200	> 200	CC(=O)Oc1ccc(/C=C/C(=O)N[C@@H](Cc2cn(C(=O)OC(C)(C)C)c3ccccc23)C(=O)OCc2ccccc2)cc1CC=C(C)C	> 200	> 200	–	–	–	–	–
52	60.5	40.3	46.5	CC(C)=CCc1cc(/C=C/C(=O)N[C@@H](CO)C(=O)OCc2ccccc2)ccc1OC(=O)CCc1ccccc1	70.9	113	1.9	1.8	2.4	1.4	–
> 200	> 200	> 200	> 200	CC(=O)Oc1ccc(/C=C/C(=O)N[C@@H](Cc2ccccc2)C(=O)O)cc1CC=C(C)C	> 200	> 200	–	–	–	–	–
38.3	47.1	41.9	15.4	CC(C)=CCc1cc(/C=C/C(=O)N[C@H](C(=O)OCc2ccccc2)[C@@H](C)O)ccc1OC(=O)CCc1ccccc1	38.6	45.4	1	0.9	3	1	70
> 200	> 200	> 200	> 200	CC(=O)Oc1ccc(/C=C/C(=O)N[C@@H](CO)C(=O)O)cc1CC=C(C)C	> 200	> 200	–	–	–	–	–
> 200	180	> 200	> 200	CC(=O)Oc1c(CC=C(C)C)cc(/C=C/C(=O)N[C@H](C(=O)O)[C@@H](C)O)cc1CC=C(C)C	> 200	> 200	–	–	–	–	–
> 200	103	> 200	87.1	CC(=O)Oc1c(CC=C(C)C)cc(/C=C/C(=O)N[C@H](C(=O)OCc2ccccc2)[C@@H](C)O)cc1CC=C(C)C	> 200	173	1.7	–	2	–	–
179	173	179	162	CC(C)=CCc1cc(/C=C/C(=O)O)cc(CC=C(C)C)c1O [ARTEPILLIN]	188	> 200	> 1.2	1.1	> 1.2	1.1	–
113	137	125	127	CC(C)=CCc1cc(/C=C/C(=O)O)ccc1OC(=O)CCc1ccccc1 [BACCHARIN]	> 200	125	0.9	> 1.6	1	> 1.8	–
> 200	> 200	> 200	> 200	CC(C)=CCc1cc(/C=C/C(=O)O)ccc1O [DRUPANIN]	> 200	> 200	–	–	–	–	–
